Experimental findings from ChEMBL document CHEMBL1201862, “PubChem BioAssay data set” (2004) are described below.

Molecules are shown by their SMILES.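 1) Cells in 96-well plates. 2) Compound, 48 h, 5 concentrations. 3) Linear interpolation between surrounding doses. 4) Unreached endpoint = highest concentration. GI50 marks 50% less growth.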 The source made the active and inactive calls. No stated cut-off is given here; in the data, active = GI50 up to about 1.1 µM and inactive = higher.

Common to all, as to test: DTP human tumour cell line panel, 48 h
Test [1] relates to 786-0.
Test [2] concerns COLO 205.
In test [3] the test system is EKVX.
Test [4] deals with HT-29.
In test [5] the test system is Hs-578T.
Test [6] has as its system K562.
In test [7] the test system is MCF7.
In test [8] the test system is MOLT-4.
Test [9] deals with NCI-H23.
In test [10] the test system is NCI-H522.
Test [11] concerns RPMI-8226.
Test [12] relates to SF-268.
Test [13] has as its system SF-539.
Test [14] deals with SK-MEL-2.
Test [15] has as its system SN12C.
Test [16] concerns SNB-19.
In test [17] the test system is T47D.
The subject of test [18] is UACC-62.
Test [19] relates to HCC 2998.
Test [20] concerns OVCAR-4.

By GI50 is commonly meant the concentration at which growth is held to half of that of the control.

Take `Cc1cc2c(cc1C)[n+]([O-])c(C(F)(F)F)c(C(=O)c1ccccc1)[n+]2[O-]`: the GI50 in test [1] was 3.47 µM (inactive); in [2] it was 1.82 µM (inactive); in [3] it was 0.785 µM (active); in test [4], 1.71 µM (inactive); in [5], 2.58 µM (inactive); in test [6] it was 2.27 µM (inactive). In addition, the GI50 was 3.27 µM (inactive) in test [7]; 1.69 µM (inactive) in test [8]; 2.12 µM (inactive) in test [9]; 2.99 µM (inactive) in test [10]; 1.24 µM (inactive) in test [11]; 1.91 µM (inactive) in [12]. The GI50 in [13] was 5.07 µM (inactive); in [14], 4.89 µM (inactive); in [15] it was 2.74 µM (inactive); in test [16] it was 3.56 µM (inactive); in [17], 0.724 µM (active); in test [18], 2.22 µM (inactive).
Regarding `CCn1c2ccccc2n2c(=O)c3c(c(C#N)c12)CCCC3`, the GI50 in test [1], in test [2], in test [3], in test [19], in [4] and in test [5] was > 100 µM (inactive) throughout. Also, the GI50 in test [6], in [7], in [8], in test [9], in test [10] and in [20] was > 100 µM (inactive) in each case. Also, the GI50 in [12], in test [13], in test [14], in test [15], in test [16] and in [17] was > 100 µM (inactive) each time. Also, the GI50 in [18] is > 100 µM (inactive).
For the molecule `O=[N+]([O-])c1ccc(/C=C(/c2ccc([N+](=O)[O-])o2)S(=O)(=O)c2ccccc2)o1`, the GI50 is 3.17 µM (inactive) in [1]; 2.13 µM (inactive) in test [2]; 0.0885 µM (active) in test [3]; 4.49 µM (inactive) in test [4]; 15.4 µM (inactive) in test [5]; 2.96 µM (inactive) in [6]. Moreover, the GI50 in test [7] is 11.8 µM (inactive); in test [9] it was 19.7 µM (inactive); in [10], 1.93 µM (inactive); in test [20], 4.22 µM (inactive); in test [11], 0.128 µM (active); in test [12], 15.6 µM (inactive). The GI50 in test [13] is 18.1 µM (inactive); in test [14], 17.4 µM (inactive); in [16], 20.1 µM (inactive); in [17], 11.4 µM (inactive); in test [18] it was 6.17 µM (inactive).
As for `NNc1nncn1N`, the GI50 in test [1] was > 80 µM (inactive); in test [2], > 100 µM (inactive); in [3] it was > 100 µM (inactive); in test [4], > 100 µM (inactive); in test [5] it was > 100 µM (inactive); in test [6], > 76 µM (inactive). In addition, the GI50 in [7] is > 100 µM (inactive); in test [8], > 62.4 µM (inactive); in test [9], > 51.2 µM (inactive); in test [10], > 93.1 µM (inactive); in test [20], 38.1 µM (inactive); in [11], 72.1 µM (inactive). Also, the GI50 in test [12] was > 100 µM (inactive); in test [13], > 53.8 µM (inactive); in test [14], > 100 µM (inactive); in [15], > 73.1 µM (inactive); in test [16], > 100 µM (inactive); in test [17] it was 63 µM (inactive). In addition, the GI50 in test [18] was > 100 µM (inactive).
On to `N#CC(C#N)=C/C=C(\Sc1c(Cl)c(Cl)nc(Cl)c1Cl)c1ccc(Cl)cc1`, for which the GI50 was 4.45 µM (inactive) in test [1]; 24.4 µM (inactive) in [2]; 32.4 µM (inactive) in test [3]; 18 µM (inactive) in test [4]; 15.7 µM (inactive) in test [5]; 5.93 µM (inactive) in [6]. For the same molecule, the GI50 was 31.1 µM (inactive) in test [7]; 4.56 µM (inactive) in [8]; 16.2 µM (inactive) in [9]; 18.8 µM (inactive) in [10]; 29.9 µM (inactive) in test [20]; 4.1 µM (inactive) in [11]. Also, the GI50 in test [12] was 19.6 µM (inactive); in test [13], 19.4 µM (inactive); in [14], 32.4 µM (inactive); in test [15], 20.8 µM (inactive); in test [16], 20.7 µM (inactive); in [17] it was 31.6 µM (inactive). The GI50 in test [18] is 14.3 µM (inactive).
For `COc1ccc(C(OCC2OC(n3ccc(Oc4c(F)c(F)c(F)c(F)c4F)nc3=O)CC2OP(OCCC#N)N(C(C)C)C(C)C)(c2ccccc2)c2ccc(OC)cc2)cc1` (stereo not drawn), the GI50 in [1] was > 100 µM (inactive); in test [2], > 100 µM (inactive); in [3], > 10 µM (inactive); in [19] it was > 100 µM (inactive); in test [4], > 100 µM (inactive); in test [5], > 100 µM (inactive). The GI50 in test [6] is > 100 µM (inactive); in [7], > 100 µM (inactive); in test [8] it was > 100 µM (inactive); in test [9], 42.8 µM (inactive); in test [10], > 100 µM (inactive); in [11], > 100 µM (inactive). Further, the GI50 in test [12], in test [13], in test [14], in test [15], in test [16] and in [17] was > 100 µM (inactive) throughout. Further, the GI50 in test [18] was > 100 µM (inactive).
Take `CC(=O)C(=C(c1ccccc1)c1ccccc1)c1ccccc1`: the GI50 in test [1] is > 100 µM (inactive); in test [2] it was > 100 µM (inactive); in test [3] it was 15.6 µM (inactive); in [19], > 100 µM (inactive); in test [4], > 100 µM (inactive); in test [5], > 100 µM (inactive). Further, the GI50 was 62.7 µM (inactive) in test [6]; > 100 µM (inactive) in test [7]; 87.5 µM (inactive) in [8]; > 100 µM (inactive) in [9]; > 100 µM (inactive) in test [10]; 70 µM (inactive) in test [20]. The GI50 in [11] is 52.6 µM (inactive); in [12], > 100 µM (inactive); in test [13] it was > 100 µM (inactive); in [15], > 100 µM (inactive); in [16], > 100 µM (inactive); in test [17], > 100 µM (inactive). Also, the GI50 in test [18] was > 100 µM (inactive).
For `CC1(C)CC(=O)c2c(nc3c(ccc4ccccc43)c2-c2ccc(NC(=O)CCC(=O)Nc3ccc(-c4c5c(nc6c4ccc4ccccc46)CC(C)(C)CC5=O)cc3)cc2)C1`, the GI50 in [1] was > 100 µM (inactive); in test [2], > 100 µM (inactive); in test [3], 95.3 µM (inactive); in [4], > 100 µM (inactive); in [5] it was > 100 µM (inactive); in test [6] it was > 100 µM (inactive). The GI50 in test [7], in [8], in test [10], in [11], in test [12] and in test [13] was > 100 µM (inactive) throughout. The GI50 in test [14], in test [15], in [16], in test [17] and in test [18] was > 100 µM (inactive) throughout.
Regarding `O=C(N/N=C1/C(=O)c2c3ccccc3cc3cccc1c23)c1ccccc1`, the GI50 in [1] is 19.1 µM (inactive); in test [2] it was > 65.6 µM (inactive); in test [3], 75.7 µM (inactive); in test [4] it was 30.2 µM (inactive); in [5], 40.6 µM (inactive); in test [6], > 59.6 µM (inactive). In addition, the GI50 in test [7] was 30.4 µM (inactive); in [8] it was > 62.7 µM (inactive); in [9] it was 36.3 µM (inactive); in test [10], 32.7 µM (inactive); in test [20] it was 20.8 µM (inactive); in [11], > 80.4 µM (inactive). Further, the GI50 in test [12] is 30 µM (inactive); in test [13], 37.1 µM (inactive); in test [14], 33.2 µM (inactive); in test [15] it was 37.8 µM (inactive); in test [16] it was 35.8 µM (inactive); in test [17] it was 3.69 µM (inactive). Further, the GI50 in test [18] is 26.8 µM (inactive).
Turning to `O=c1[nH]c2ccc(O)cc2o1`, the GI50 was > 100 µM (inactive) in test [1]; > 100 µM (inactive) in test [2]; > 100 µM (inactive) in [3]; 2.56 µM (inactive) in test [19]; > 100 µM (inactive) in [4]; > 100 µM (inactive) in test [5]. Moreover, the GI50 in test [6], in test [7], in test [8], in test [9], in [10] and in test [20] was > 100 µM (inactive) in each case. Moreover, the GI50 in test [12], in [13], in test [15], in [16], in test [17] and in test [18] was > 100 µM (inactive) in each case.
For the molecule `COc1ccc(CC2C3=C(CCCC3)CCN2C)cc1` (stereo not drawn), the GI50 was > 100 µM (inactive) in [1]; > 100 µM (inactive) in test [2]; > 100 µM (inactive) in [3]; 45.4 µM (inactive) in [19]; 65.8 µM (inactive) in test [4]; 77.6 µM (inactive) in test [5]. Also, the GI50 in [6] was 39 µM (inactive); in test [7], > 100 µM (inactive); in test [8], > 100 µM (inactive); in [9], > 100 µM (inactive); in [20], > 100 µM (inactive); in test [11] it was > 100 µM (inactive). Further, the GI50 in test [12] was 43.1 µM (inactive); in test [13], > 100 µM (inactive); in test [14], > 100 µM (inactive); in test [15], > 100 µM (inactive); in test [16], > 100 µM (inactive); in test [17], 69.2 µM (inactive). Besides, in test [18], the GI50 was 65.6 µM (inactive).
